From PubChem BioAssay (NCI)
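Briefly, cells in 96-well plates were exposed to five compound concentrations for 48 h, and endpoints were estimated by linear interpolation. Here, GI50 denotes the concentration required for 50% inhibition of growth. TGI denotes the concentration required for complete inhibition of growth.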

Legend:
Assay in all cases: NCI tumour cell line growth inhibition, 48 h
[1] = system: BT-549 breast
[2] = system: HOP-62 NSCLC
[3] = system: LOX IMVI melanoma
[4] = system: MCF7 breast
[5] = system: MDA-MB-231 breast
[6] = system: OVCAR-5 ovarian
[7] = system: SF-539 CNS
[8] = system: SK-MEL-2 melanoma
[9] = system: SK-MEL-5 melanoma
[10] = system: SK-OV-3 ovarian

Structure (SMILES)	GI50 [1] [µM]	TGI [1] [µM]	GI50 [2] [µM]	TGI [2] [µM]	GI50 [3] [µM]	TGI [3] [µM]	GI50 [4] [µM]	TGI [4] [µM]	GI50 [5] [µM]	TGI [5] [µM]	GI50 [6] [µM]	TGI [6] [µM]	GI50 [7] [µM]	TGI [7] [µM]	GI50 [8] [µM]	TGI [8] [µM]	GI50 [9] [µM]	TGI [9] [µM]	GI50 [10] [µM]	TGI [10] [µM]
CCN(Cc1ccc(F)cc1)c1cc(Cl)c(CO)c(Cl)c1	13.6	28.3	14	27.2	14.7	29.3	13.7	28	13	26.7	4.22	17.7	16.2	30.4	15	29.5	13.5	26.5	15.2	28.7
Cc1csc(-c2nnc(Nc3ccc(Oc4ncccc4-c4ccnc(N)n4)cc3)c3ccccc23)c1	> 100	> 100	4.4	> 100	0.433	> 100	0.13	> 100	4.32	> 100	> 100	> 100	> 100	> 100	2.71	> 26.9	71.5	> 100	> 100	> 100
CCN(C(=O)N1CCN(c2cc3c(cc2F)c(=O)c(C(=O)O)cn3C2CC2)CC1)c1nc(-c2ccc(Cl)cc2)cs1	1.02	5.61	1.6	17.7	0.37	1.63	2.97	> 100	1.69	6.35	2.62	> 100	1.02	3.74	2.12	5.39	1.99	15.9	1.83	6.46
O=S(=O)(c1ccccc1)N1CCN(S(=O)(=O)c2ccccc2)c2ccccc21	–	> 100	–	> 100	–	> 100	–	> 100	–	> 100	–	> 100	–	> 100	–	> 100	–	> 100	–	> 100
COC[C@H]1Cn2cc(-c3nc(Nc4ccnn4C)ncc3C)nc2C(=O)N1Cc1ccc(F)c(F)c1	48.9	> 100	1.15	> 100	0.119	> 100	9.79	> 100	0.678	> 78.6	0.103	> 100	27.1	> 100	0.0964	> 100	9.51	> 83.3	35.9	> 100
CC(C)=CCC(O)C1=CC(=O)c2c(O)ccc(O)c2C1=O (stereo not given)	–	3.17	–	4.95	–	2.63	–	2.11	–	4.71	–	3.89	–	3.01	–	3.83	–	1.88	–	24
COc1ccc(CCN=C2NC(=O)/C(=C/c3ccc4ncccc4c3)S2)cc1	> 25	> 25	> 25	> 25	> 25	> 25	> 25	> 25	> 25	> 25	> 25	> 25	> 25	> 25	> 25	> 25	> 25	> 25	> 25	> 25
Nc1n[nH]c2cc(F)c([C@@H]3Nc4ccc5[nH]ncc5c4[C@H]4C5CCC(C5)[C@@H]34)cc12 (stereo not given in full)	0.141	2.59	0.222	9.12	0.158	6.47	0.115	9.18	0.2	7.86	0.326	24.4	0.115	0.322	0.798	20.1	0.128	0.355	0.359	> 32.1
Nc1ccc(C2=NNC(=O)Cc3cc4c(cc32)OCCO4)cc1Cl	5.99	> 50	5.12	> 50	2.95	> 50	1.99	> 50	27.1	> 50	7.96	> 50	4.15	16.8	2.81	44.6	2.28	> 50	8.1	> 50
COc1cc(/C(C#N)=C/c2nc3c(N4CCOCC4)nc(Cl)nc3n2C)cc(OC)c1OC	< 0.01	0.481	< 0.01	12.9	< 0.01	4.17	< 0.0115	> 32.5	< 0.01	35.9	< 0.01	> 100	< 0.01	< 0.01	< 0.0144	62.7	< 0.01	0.0268	< 0.01	7.27
CN(C)c1cc(NN=C(c2ccc(O)cc2)c2ccc(O)cc2)c([N+](=O)[O-])cc1[N+](=O)[O-]	6.32	21.5	10.5	26.1	3.04	15.2	3.42	16	4.72	17.5	17.2	32.4	11.8	24.1	7.45	22.9	3.17	14.4	14.4	36.6
CCCCCCCCCCCCC(O)c1ccc(C#CCCCCCCCCCO)o1 (stereo not given)	21.7	42.3	20.1	35.5	18.5	33.5	17.3	42.3	20.4	36.2	20.9	39.2	21.1	36.8	26.4	81	25.5	47.2	25.8	62.2
